Measurements taken from US20260097037A1, “FUSED RING COMPOUND HAVING GLP-1 RECEPTOR AGONIST EFFECT” (Shionogi & Co., Ltd., priority 2022, published 2026).
Where two headings read alike, the source gives them in different places.

Biological target: T1, Human GLP-1 receptor stably expressing cells (hGLP-1R/CHO-K1 cells) (Homo sapiens, UniProt P43220)
T1 construct: expressed in transfected cells
Assay: Measurement of GLP-1 receptor agonist activity (cAMP assay)
Assay type: cell-based
Details: for Emax: cAMP with 2 nM human GLP-1 (7-36) = 100%, DMSO only = 0%; for EC50: increase in cAMP concentration in hGLP-1R/CHO-K1 cells, 37° C. 1 hour
Procedure, shortened: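 hGLP-1R/CHO-K1 cells (cryopreserved) incubated with compound and forskolin in HBSS with 0.1% BSA, IBMX and RO20-1724, 1 h at 37° C; cAMP read by HTRF. EC50 and Emax from cAMP rise, normalised to 2 nM human GLP-1 (7-36) (100%) and DMSO (0%).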

[1] = CHO-K1, maximum effect, read-out: Emax

T1 sequence (P43220 24-463): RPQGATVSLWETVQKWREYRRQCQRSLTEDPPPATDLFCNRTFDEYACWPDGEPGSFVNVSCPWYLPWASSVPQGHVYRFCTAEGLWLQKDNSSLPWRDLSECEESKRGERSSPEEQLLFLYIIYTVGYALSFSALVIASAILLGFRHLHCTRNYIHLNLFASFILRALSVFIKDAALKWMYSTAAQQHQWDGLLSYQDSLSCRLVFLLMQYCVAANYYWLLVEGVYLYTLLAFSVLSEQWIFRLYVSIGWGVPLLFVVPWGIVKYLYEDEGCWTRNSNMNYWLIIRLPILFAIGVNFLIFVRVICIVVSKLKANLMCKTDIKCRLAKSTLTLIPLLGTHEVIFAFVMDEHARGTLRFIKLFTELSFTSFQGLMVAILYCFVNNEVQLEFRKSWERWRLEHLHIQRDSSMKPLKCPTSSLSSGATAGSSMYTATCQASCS

Emax [1] [%]	EC50 [nM]	Emax (maximum effect) [%]	SMILES
99.7	12.4	–	C[C@H]1c2nc(OCc3ccc(Cl)cc3F)c(C(F)(F)F)cc2CCN1Cc1nc2c(-c3cnn(C)c3)cc(C(=O)O)cc2n1C[C@@H]1CCO1 [Compound I-178]
96.3	6.34	–	C[C@H]1c2c(ccc3c2OC(C)(c2ccc(Cl)cn2)O3)CCN1Cc1nc2ccc(C(=O)O)cc2n1C[C@@H]1CCO1 (some centres unmarked) [Compound I-093]
128	0.119	–	C[C@H]1c2nc(OCc3ccc(Cl)cc3F)c(C#N)cc2CCN1Cc1nc2c(F)cc(C(=O)O)cc2n1C[C@@H]1CCO1 [Compound I-138]
105	0.0992	–	C[C@H]1c2nc(NCc3ccc(Cl)cc3F)c(C(F)(F)F)cc2CCN1Cc1nc2c(F)cc(C(=O)O)cc2n1C[C@@H]1CCO1 [Compound I-152]
101	7.04	–	C[C@H]1c2nc(OCc3cc(Cl)n(C)n3)c(C(F)(F)F)cc2CCN1Cc1nc2ccc(C(=O)O)cc2n1C[C@@H]1CCO1 [Compound I-154]
113	0.0195	–	COc1cc(C(=O)O)cc2c1nc(CN1CCc3cc(C(F)(F)F)c(NCc4cc(F)c(Cl)cc4F)nc3[C@@H]1C)n2C[C@@H]1CCO1 [Compound I-177]
112	669	–	C[C@H]1c2c(cc(C(F)(F)F)c3c2O[C@](C)(c2ccc(Cl)cc2F)O3)CCN1Cc1nc2ccc(C(=O)O)cc2n1C[C@@H]1CCO1 [Compound I-046]
92.7	0.0738	–	C[C@H]1c2nc(NCc3ccc(Cl)cc3F)c(C(F)(F)F)cc2CCN1Cc1nc2c(Cl)cc(C(=O)O)cc2n1C[C@@H]1CCO1 [Compound I-151]
128	0.0122	–	COc1cc(C(=O)O)cc2c1nc(CN1CCc3cc(C(F)F)c(OCc4ccc(Cl)cc4F)nc3[C@@H]1C)n2C[C@@H]1CCO1 [Compound I-128]
66.3	83.5	–	Cc1nc(COc2nc3c(cc2C(F)(F)F)CCN(Cc2nc4ccc(C(=O)O)cc4n2C[C@@H]2CCO2)[C@H]3C)no1 [Compound I-160]
122	0.052	–	COc1cc(C(=O)O)cc2c1nc(CN1CCc3cc(C(F)(F)F)c(NCc4ccc(Cl)cc4)nc3[C@@H]1C)n2C[C@@H]1CCO1 [Compound I-167]
101	0.671	–	C[C@H]1c2c(cc(C(F)(F)F)c3c2O[C@@](C)(c2ccc(Cl)cn2)O3)CCN1Cc1nc2c(F)cc(C(=O)O)cc2n1C[C@@H]1CCO1 [Compound I-156]
112	0.194	–	COc1cc(C(=O)O)cc2c1nc(CN1CCc3cc(Cl)c(OCc4ccccc4Cl)nc3[C@@H]1C)n2C[C@@H]1CCO1 [Compound I-068]
118	1.02	–	C[C@H]1c2nc(OCc3ccc(F)cc3)c(C(F)F)cc2CCN1Cc1nc2ccc(C(=O)O)cc2n1C[C@@H]1CCO1 [Compound I-051]
109	0.191	–	C[C@H]1c2nc(NCc3ccc(Cl)cc3)c(C(F)(F)F)cc2CCN1Cc1nc2c(F)cc(C(=O)O)cc2n1C[C@@H]1CCO1 [Compound I-169]
119	0.701	–	C[C@H]1c2c(cc(C(F)(F)F)c3c2O[C@@](C)(c2ccc(Cl)cn2)O3)CCN1Cc1nc2ccc(C(=O)O)cc2n1C[C@@H]1CCO1 [Compound I-027]
–	0.348	133	Cc1ccc(COc2nc3c(cc2Cl)CCN(Cc2nc4ccc(C(=O)O)cc4n2C[C@@H]2CCO2)[C@H]3C)cc1 [Compound I-018]
108	0.354	–	C[C@H]1c2nc(OCc3ccc(F)cc3F)c(C(F)F)cc2CCN1Cc1nc2ccc(C(=O)O)cc2n1C[C@@H]1CCO1 [Compound I-056]
106	0.339	–	C[C@H]1c2nc(OCc3ccc(Cl)cc3F)c(C#N)cc2CCN1Cc1nc2ccc(C(=O)O)cc2n1C[C@@H]1CCO1 [Compound I-136]
102	0.716	–	C[C@H]1c2nc(CCc3ccc(Cl)cc3)c(C(F)(F)F)cc2CCN1Cc1nc2ccc(C(=O)O)cc2n1C[C@@H]1CCO1 [Compound I-095]
121	0.481	–	C[C@H]1c2nc(OCc3ccccc3Cl)c(C(F)F)cc2CCN1Cc1nc2ccc(C(=O)O)c(F)c2n1C[C@@H]1CCO1 [Compound I-120]
111	0.0635	–	C[C@H]1c2nc(OCc3cc(F)c(Cl)cc3F)c(C(F)F)cc2CCN1Cc1nc2ccc(C(=O)O)c(F)c2n1C[C@@H]1CCO1 [Compound I-126]
123	0.0299	–	COc1cc(C(=O)O)cc2c1nc(CN1CCc3cc(C(F)F)c(OCc4ccc(F)cc4F)nc3[C@@H]1C)n2C[C@@H]1CCO1 [Compound I-131]
129	0.0999	–	C[C@H]1c2nc(OCc3ccc(C#N)c4ccoc34)c(C(F)(F)F)cc2CCN1Cc1nc2ccc(C(=O)O)cc2n1C[C@@H]1CCO1 [Compound I-143]
135	0.0972	–	C[C@H]1c2nc(OCc3ccc(Cl)cc3Cl)c(Cl)cc2CCN1Cc1nc2ccc(C(=O)O)cc2n1C[C@@H]1CCO1 [Compound I-020]
111	0.28	–	C[C@H]1c2nc(OCc3ccc(Cl)c4ccoc34)c(C#N)cc2CCN1Cc1nc2c(Cl)cc(C(=O)O)cc2n1C[C@@H]1CCO1 [Compound I-180]
101	0.295	–	C[C@H]1c2nc(OCc3c(F)cc(F)cc3F)c(C(F)F)cc2CCN1Cc1nc2ccc(C(=O)O)cc2n1C[C@@H]1CCO1 [Compound I-061]
86.7	0.315	–	C[C@H]1c2nc(OCc3ccc(Cl)cc3Cl)c(C(F)F)cc2CCN1Cc1nc2ccc(C(=O)O)cc2n1C[C@@H]1CCO1 [Compound I-057]
